In one experiment the target is T1, Caspase-1 (Homo sapiens, UniProt P29466).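 Also: Caspase-1 enzyme inhibition assay with a peptide substrate; in other assays of this panel Not Active means under 50% inhibition at 10 µM.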
T1 sequence (P29466 whole entry): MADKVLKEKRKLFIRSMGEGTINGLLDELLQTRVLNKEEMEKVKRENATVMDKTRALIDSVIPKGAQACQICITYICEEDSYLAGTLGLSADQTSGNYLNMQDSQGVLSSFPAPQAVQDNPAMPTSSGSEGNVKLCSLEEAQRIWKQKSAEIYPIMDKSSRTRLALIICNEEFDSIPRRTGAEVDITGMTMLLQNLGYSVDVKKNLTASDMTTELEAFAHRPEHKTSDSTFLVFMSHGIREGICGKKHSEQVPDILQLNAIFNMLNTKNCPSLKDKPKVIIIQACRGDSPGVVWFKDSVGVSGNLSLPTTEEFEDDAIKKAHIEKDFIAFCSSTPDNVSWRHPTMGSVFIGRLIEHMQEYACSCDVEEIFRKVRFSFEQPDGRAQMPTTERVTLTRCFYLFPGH
Further details: species or system Escherichia coli.

Experiment [1] can be described thus: DRUGMATRIX: Calcium Channel Type L, Phenylalkylamine radioligand binding (ligand: [3H] (-)-Desmethoxyverapamil (D-888)). It is filed as cell membranes, Rattus norvegicus, Wistar, Brain, Membrane. Particulars: Not Active = under 50% inhibition at 10 µM.
For a further experiment, the target named is Cannabinoid receptor 1 (Homo sapiens, UniProt P21554). The experiment is classed as cell membranes, Membrane. The following applies: chem-1. Also: in other assays of this panel Not Active means under 50% inhibition at 10 µM.
Sequence of Cannabinoid receptor 1 (P21554 whole entry): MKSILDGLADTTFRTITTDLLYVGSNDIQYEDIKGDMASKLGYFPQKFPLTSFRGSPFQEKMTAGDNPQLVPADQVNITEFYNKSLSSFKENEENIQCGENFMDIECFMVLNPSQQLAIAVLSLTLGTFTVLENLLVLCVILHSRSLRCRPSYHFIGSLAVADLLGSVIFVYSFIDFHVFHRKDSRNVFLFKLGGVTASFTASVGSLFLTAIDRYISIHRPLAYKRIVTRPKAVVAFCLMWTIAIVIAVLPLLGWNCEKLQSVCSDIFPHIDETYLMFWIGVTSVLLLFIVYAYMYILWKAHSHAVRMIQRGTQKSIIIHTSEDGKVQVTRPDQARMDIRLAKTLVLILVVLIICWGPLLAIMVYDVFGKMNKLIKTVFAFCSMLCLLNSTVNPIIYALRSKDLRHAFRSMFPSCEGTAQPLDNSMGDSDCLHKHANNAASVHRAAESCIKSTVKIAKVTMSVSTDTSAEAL
For experiment [2], the target named is Tyrosine-protein kinase Lck (Homo sapiens, UniProt P06239). The experiment can be described thus: DRUGMATRIX: Protein Tyrosine Kinase, LCK enzyme inhibition (substrate: Poly(Glu:Tyr)). The experiment is classed as cell-based, Insect cells. The following applies: Not Active = under 50% inhibition at 10 µM.
Sequence of Tyrosine-protein kinase Lck (P06239 whole entry): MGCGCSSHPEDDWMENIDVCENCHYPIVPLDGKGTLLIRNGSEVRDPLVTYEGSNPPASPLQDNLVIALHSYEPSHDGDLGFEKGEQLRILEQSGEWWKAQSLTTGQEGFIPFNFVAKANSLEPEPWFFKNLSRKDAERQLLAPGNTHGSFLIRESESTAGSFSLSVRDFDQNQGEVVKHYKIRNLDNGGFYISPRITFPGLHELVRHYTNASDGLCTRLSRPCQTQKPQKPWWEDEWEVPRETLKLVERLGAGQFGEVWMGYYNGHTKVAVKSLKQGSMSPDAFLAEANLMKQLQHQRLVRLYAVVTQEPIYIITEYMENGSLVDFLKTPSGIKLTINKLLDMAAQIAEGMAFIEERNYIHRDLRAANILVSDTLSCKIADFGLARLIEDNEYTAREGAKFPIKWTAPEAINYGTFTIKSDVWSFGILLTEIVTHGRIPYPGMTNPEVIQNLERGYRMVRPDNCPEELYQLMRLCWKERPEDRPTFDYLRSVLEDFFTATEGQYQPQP
Another experiment deals with T2, Adenosine receptor A3 (Homo sapiens, UniProt P0DMS8).
T2 sequence (P0DMS8 whole entry): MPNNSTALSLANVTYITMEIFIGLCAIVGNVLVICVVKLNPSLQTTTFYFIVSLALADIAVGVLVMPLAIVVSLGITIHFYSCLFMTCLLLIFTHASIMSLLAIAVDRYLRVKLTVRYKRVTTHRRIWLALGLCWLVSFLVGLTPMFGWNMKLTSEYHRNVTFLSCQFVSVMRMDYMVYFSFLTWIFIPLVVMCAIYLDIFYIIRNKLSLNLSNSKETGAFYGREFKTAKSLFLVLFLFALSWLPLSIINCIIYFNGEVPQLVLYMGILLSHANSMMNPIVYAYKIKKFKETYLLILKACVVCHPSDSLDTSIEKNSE
It is filed as cell membranes, CHO-K1, Membrane. The following applies: cho-k1.

Another experiment addresses Melanocortin receptor 4 (Homo sapiens, UniProt P32245). It is filed as cell membranes, Membrane. The following applies: hek293.
Experiment [3] addresses T3, Cysteinyl leukotriene receptor 1 (Homo sapiens, UniProt Q9Y271).
T3 sequence (Q9Y271 whole entry): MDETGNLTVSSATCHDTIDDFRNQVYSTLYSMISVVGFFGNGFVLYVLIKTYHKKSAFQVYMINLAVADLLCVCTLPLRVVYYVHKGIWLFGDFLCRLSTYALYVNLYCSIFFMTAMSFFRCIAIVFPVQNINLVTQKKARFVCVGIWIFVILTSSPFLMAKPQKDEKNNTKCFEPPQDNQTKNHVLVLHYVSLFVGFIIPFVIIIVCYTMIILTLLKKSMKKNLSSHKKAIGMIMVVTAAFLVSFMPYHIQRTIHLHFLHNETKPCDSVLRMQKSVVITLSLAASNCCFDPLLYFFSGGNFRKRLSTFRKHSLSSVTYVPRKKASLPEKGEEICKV
The experiment is classed as cell membranes, Membrane. The following applies: cho-k1.

Sequence of Melanocortin receptor 4 (P32245 whole entry): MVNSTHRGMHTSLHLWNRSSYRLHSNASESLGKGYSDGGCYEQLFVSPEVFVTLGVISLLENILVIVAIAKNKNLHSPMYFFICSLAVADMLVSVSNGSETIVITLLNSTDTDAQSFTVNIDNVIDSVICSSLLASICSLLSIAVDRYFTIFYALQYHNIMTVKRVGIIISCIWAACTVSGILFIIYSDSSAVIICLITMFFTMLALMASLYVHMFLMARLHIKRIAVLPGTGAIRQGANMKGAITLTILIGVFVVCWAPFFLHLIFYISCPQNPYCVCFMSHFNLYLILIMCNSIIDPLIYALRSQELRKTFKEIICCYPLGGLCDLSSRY

`CO[C@H]1C[C@@H]2CC[C@@H](C)[C@@](O)(O2)C(=O)C(=O)N2CCCC[C@H]2C(=O)O[C@H]([C@H](C)C[C@@H]2CC[C@@H](O)[C@H](OC)C2)CC(=O)[C@H](C)/C=C(\C)[C@@H](O)[C@@H](OC)C(=O)[C@H](C)C[C@H](C)/C=C/C=C/C=C/1C` [SIROLIMUS]: the IC50 entry (against Caspase-1; in experiment [1]; against Cannabinoid receptor 1; in experiment [2] (insect cells); on Adenosine receptor A3; at Melanocortin receptor 4) was “Not Active” each time. The IC50 entry in experiment [3] was “Not Active”. The Ki entry in experiment [1] is “Not Active”.

As for `CN[C@@H]1[C@H](O)[C@H](NC)[C@H]2O[C@@]3(O)C(=O)C[C@@H](C)O[C@H]3O[C@@H]2[C@H]1O` [SPECTINOMYCIN], the IC50 entry (against Caspase-1; in experiment [1]; at Cannabinoid receptor 1; in experiment [2] (insect cells); on Adenosine receptor A3; against Melanocortin receptor 4) was “Not Active” each time. Also, the IC50 result in experiment [3] is “Not Active”. Moreover, the Ki entry in experiment [1] is reported as “Not Active”.

Regarding `Nc1ccc(S(=O)(=O)Nc2ncccn2)cc1` [SULFADIAZINE], the IC50 entry (against Caspase-1; in experiment [1]; against Cannabinoid receptor 1; in experiment [2] (insect cells); against Adenosine receptor A3; on Melanocortin receptor 4) was “Not Active” throughout. Further, in experiment [3], the IC50 result is recorded as “Not Active”. The Ki entry in experiment [1] was “Not Active”.

Consider `COc1ncnc(NS(=O)(=O)c2ccc(N)cc2)c1OC` [SULFADOXINE], for which the IC50 entry (on Caspase-1; in experiment [1]; on Cannabinoid receptor 1; in experiment [2] (insect cells); against Adenosine receptor A3; against Melanocortin receptor 4) was “Not Active” throughout. Further, in experiment [3], the IC50 result is reported as “Not Active”. For the same compound, the Ki result in experiment [1] was “Not Active”.

Turning to `Nc1ccc(S(=O)(=O)Nc2nccs2)cc1` [SULFATHIAZOLE], the IC50 result (at Caspase-1; in experiment [1]; against Cannabinoid receptor 1; in experiment [2] (insect cells); against Adenosine receptor A3; against Melanocortin receptor 4) was “Not Active” in each case. Besides, the IC50 result in experiment [3] was “Not Active”. For the same compound, in experiment [1], the Ki result was “Not Active”.

Consider `C[C@]12CC[C@H]3[C@@H](CCC4=CC(=O)CC[C@@]43C)[C@@H]1CC[C@@H]2O` [TESTOSTERONE], for which the IC50 result (on Caspase-1; in experiment [1]; on Cannabinoid receptor 1; in experiment [2] (insect cells); at Adenosine receptor A3; on Melanocortin receptor 4) was “Not Active” throughout. For the same compound, the IC50 entry in experiment [3] is recorded as “Not Active”. Besides, the Ki result in experiment [1] is “Not Active”.

Take `CC(C)(C)NC[C@H](O)COc1nsnc1N1CCOCC1` [TIMOLOL]: the IC50 result (at Caspase-1; in experiment [1]; against Cannabinoid receptor 1; in experiment [2] (insect cells); against Adenosine receptor A3; at Melanocortin receptor 4) was “Not Active” each time. In addition, in experiment [3], the IC50 result is listed as “Not Active”. The Ki entry in experiment [1] was “Not Active”.

For `CCS(=O)(=O)CCn1c([N+](=O)[O-])cnc1C` [TINIDAZOLE], the IC50 result (at Caspase-1; in experiment [1]; against Cannabinoid receptor 1; in experiment [2] (insect cells); on Adenosine receptor A3; against Melanocortin receptor 4) was “Not Active” in each case. In addition, the IC50 result in experiment [3] is given as “Not Active”. In addition, in experiment [1], the Ki result is on record as “Not Active”.

With `C[C@@H]1C[C@H]2[C@@H]3CCC4=CC(=O)C=C[C@]4(C)C3=CC[C@]2(C)[C@H]1C(=O)CN1CCN(c2cc(N3CCCC3)nc(N3CCCC3)n2)CC1` [TIRILAZAD], the IC50 result was “Not Active” at Caspase-1; 2500 nM in experiment [1] (read-out: IC50); “Not Active” at Cannabinoid receptor 1; 15800 nM in experiment [2] (read-out: IC50); “Not Active” against Adenosine receptor A3; “Not Active” against Melanocortin receptor 4. Besides, the IC50 entry in experiment [3] is listed as “Not Active”. The Ki in experiment [1] (read-out: Ki) is 2430 nM.

As to `NC[C@H]1O[C@H](O[C@H]2[C@H](O)[C@@H](O[C@H]3O[C@H](CO)[C@@H](O)[C@H](N)[C@H]3O)[C@H](N)C[C@@H]2N)[C@H](N)C[C@@H]1O` [TOBRAMYCIN], the IC50 entry (at Caspase-1; in experiment [1]; on Cannabinoid receptor 1; in experiment [2] (insect cells); on Adenosine receptor A3; at Melanocortin receptor 4) was “Not Active” in each case. Also, in experiment [3], the IC50 entry was “Not Active”. The Ki result in experiment [1] is “Not Active”.

For the compound `O=C(O)C(Cl)(Cl)Cl` [TRICHLOROACETIC ACID], the IC50 result (at Caspase-1; in experiment [1]; against Cannabinoid receptor 1; in experiment [2] (insect cells); against Adenosine receptor A3; against Melanocortin receptor 4) was “Not Active” throughout. Further, the IC50 entry in experiment [3] is reported as “Not Active”. Moreover, the Ki entry in experiment [1] is recorded as “Not Active”.

As for `COc1ccc(CN2CCNCC2)c(OC)c1OC` [TRIMETAZIDINE], the IC50 entry (against Caspase-1; in experiment [1]; at Cannabinoid receptor 1; in experiment [2] (insect cells); at Adenosine receptor A3; against Melanocortin receptor 4) was “Not Active” each time. For the same compound, the IC50 entry in experiment [3] is “Not Active”. Besides, the Ki entry in experiment [1] is reported as “Not Active”.

`CC(=O)O[C@H]1C[C@@H]2CC[C@@H]3[C@H](CC[C@@]4(C)[C@H]3C[C@H]([N+]3(C)CCCCC3)[C@@H]4OC(C)=O)[C@@]2(C)C[C@@H]1N1CCCCC1.[Br-]` [VECURONIUM BROMIDE]: the IC50 entry (at Caspase-1; in experiment [1]; against Cannabinoid receptor 1; in experiment [2] (insect cells); against Adenosine receptor A3; against Melanocortin receptor 4) was “Not Active” each time. Moreover, in experiment [3], the IC50 entry was “Not Active”. The Ki result in experiment [1] is “Not Active”.

Consider `Cc1cn([C@H]2C[C@H](N=[N+]=[N-])[C@@H](CO)O2)c(=O)[nH]c1=O` [ZIDOVUDINE], for which the IC50 entry (against Caspase-1; in experiment [1]; against Cannabinoid receptor 1; in experiment [2] (insect cells); against Adenosine receptor A3; against Melanocortin receptor 4) was “Not Active” in each case. Also, the IC50 result in experiment [3] is listed as “Not Active”. In addition, in experiment [1], the inhibition constant Ki result is listed as “Not Active”.

Consider STANNOUS FLUORIDE, for which the IC50 result (at Caspase-1; in experiment [1]; at Cannabinoid receptor 1; in experiment [2] (insect cells); at Adenosine receptor A3; against Melanocortin receptor 4) was “Not Active” throughout. Besides, in experiment [3], the IC50 result is on record as “Not Active”. For the same compound, the Ki result (on Caspase-1; in experiment [1]; on Cannabinoid receptor 1; in experiment [2] (insect cells); on Adenosine receptor A3; on Melanocortin receptor 4) was “Not Active” each time. The Ki result in experiment [3] was “Not Active”.

In the case of THIMEROSAL, the IC50 result (on Caspase-1; in experiment [1]; on Cannabinoid receptor 1; in experiment [2] (insect cells); at Melanocortin receptor 4; in experiment [3]) was “Not Active” in each case. In addition, the Ki entry on Caspase-1 is “Not Active”; in experiment [1], “Not Active”; on Cannabinoid receptor 1, “Not Active”; in experiment [2] (insect cells), “Not Active”; on Adenosine receptor A3 (read-out: Ki), 1910 nM; on Melanocortin receptor 4, “Not Active”. Moreover, in experiment [3], the Ki entry is on record as “Not Active”.

The term IC50 denotes the concentration needed to halve the response being measured. For orientation: Ki means the equilibrium dissociation constant of an inhibitor or competing ligand from its target.

The record behind these values is ChEMBL document CHEMBL1909046, “DrugMatrix in vitro pharmacology data”.
